In patent US7108832B2, “Sterialization methods and apparatus which employ additive-containing supercritical carbon dioxide sterilant” (NovaSterilis Inc., priority 2003, dated 2006):
“And” between values parts separate entries of the source, which are not always exact repeats. Identical values can stand only once.

Legend:
[1] = test system: B. subtilis spore/vegetative preparations; test: Sterilization of B. subtilis spore/vegetative preparations with additive-containing supercritical CO2, residual CFU count (Examples 3A-3D, 6A, 6B); format: cell-based; details: for kill of bioindicators: constant 2000 psi rather than cycling
Experimental: A sample of B. subtilis spore/vegetative preparations (1 mL) of greater than 10^6 CFU/mL was placed in a 16 mm diameter test tube in a stainless steel basket. Acetic acid (6 mL) was transferred by syringe onto the surface of a cotton ball placed in the basket, which was then loaded into the 600 mL reactor vessel. The reactor vessel was heated to 50° C. and equilibrated with CO2 at atmospheric pressure. […] Agitation was carried out for 1 minute.
After depressurizing the reactor vessel, more acetic acid (4 mL) was introduced at ambient pressure to the additive loop via port 18 (FIG. 1). The loop was sealed and pressurized to 3000 psi. The reactor vessel was the re-pressurized through the additive loop to 3000 psi such that acetic acid was transported into the reactor vessel.
(§1) The pressurization/stirring/agitation/depressurization/additive addition process was repeated a total of three times. After the third cycle, a series of three flushing cycles to remove the additive was performed by pressurizing and de-pressurizing the reactor vessel using CO2. The stirring was stopped and the basket was removed from the reactor vessel. The residual CFUs were counted after serial dilution and culturing of both treated and untreated controls.

[2] = test system: B. stearothermophilus spores; test: Inactivation of B. stearothermophilus spores, Dillow '864 method with and without additive (Example 1); format: cell-based; details: 1500–3000 psi, 3 cycles, agitation random/directional +/−, 60 °C, 2 hrs, initial 2.3 × 10^6 CFU/ml
Source text: The effects of using an additive in accordance with the present invention was compared using the method described by U.S. Pat. No. 6,149,864 to Dillow et al for inactivating B. stearothermophilus spores. […] In contrast, a greater than 6 log reduction was achieved using the method of the present invention (Ex. B). The additive was placed on a cotton ball and inserted in the chamber prior to closure. No further additive was used.

[3] = test system: B. stearothermophilus spores; test: Comparative additives in supercritical CO2 sterilization (Example 7); format: cell-based; details: 1.0 vol. %
[4] = test system: B. stearothermophilus spores; test: Linearity of inactivation, B. stearothermophilus spore bioindicators in TYVEK pouches (Example 8); format: cell-based; details: 4.5% peracetic acid at 0.02 vol. % + water at 1 vol. %
Experimental: Example 2B was repeated except that 4.5% peracetic acid was initially added to the vessel at 0.02 vol. % on a cotton ball and water was added on a separate cotton ball at 1 vol. %. B. stearothermophilus spores were inoculated onto glass fiber filters, allowed to dry and packaged into pouches formed of nonwoven fine polyethylene fibers (1073B TYVEK® brand material) and served as bioindicators. Total CFUs per filter were greater than 10^6. The bioindicators were exposed to differing times of treatment with 4 replicates per time point. The total remaining CFUs were then determined and a plot was generated of log reduction in CFUs over time (FIG. 3).

B. subtilis spores = details: method of the Dillow et al '864 patent, other investigators (Spilimbergo et al 2002); cited from earlier work
[5] = test system: B. stearothermophilus spores; test: Sterilization of B. stearothermophilus spores with additive-containing supercritical CO2, residual CFU count (Example 2); format: cell-based; details: 4 mL additive + 6 mL water, 50° C., 2000 to 1100 psi, 3 cycles; multiple evaluations
Experimental: The apparatus generally depicted in FIGS. 1 and 2 was employed for this Example. A sample of B. stearothermophilus spores (1 mL) of greater than 10^6 CFU/mL was placed in 16 mm diameter test tubes in a stainless steel basket. Trifluoroacetic acid (4 mL) was transferred by syringe onto the surface of a cotton ball placed in the basket and water (6 mL) was placed at bottom of vessel. The basket was then loaded into the 600 mL reactor vessel. The reactor vessel was heated to 50° C. and equilibrated with CO2 at atmospheric pressure. The stirring and agitation mechanisms were activated and the reactor vessel pressurized to 2000 psi for 40 minutes. The CO2 pressure was then allowed to drop to 1100 psi at a rate of 300 psi/minute. Agitation by means of vibration of the vessel was carried out for 1 minute.
as §1, with “The pressurization/stirring/agitation/depressurization process was” for “The pressurization/stirring/agitation/depressurization/additive addition process was”, “pressurizing and partial de-pressurizing the” for “pressurizing and de-pressurizing the”

bacterial spores = test: Sterility assay of fresh or freeze-dried bone samples after treatment (Example 4); format: cell-based; details: 4 mL additive, 50° C., 3000 to 1500 psi, 3 cycles of 40 minutes
Experimental: Using the equipment and procedure in Example 1, samples of fresh or freeze-dried bone (1 cm×1 cm×0.5 cm) were placed into 16 mm test tubes in a stainless steel basket. Trifluoroacetic acid (4 mL) was transferred by syringe onto the surface of a cotton ball placed in basket, and the basket then loaded into the 600 mL reactor vessel. The reactor vessel was heated to 50° C. and equilibrated with CO2 at atmospheric pressure. The stirring and agitation mechanisms were activated and vessel pressurized to 3000 psi for 40 minutes. Agitation is carried out for 5 minutes. The CO2 pressure was then allowed to drop to 1500 psi at a rate of 300 psi/minute.
The pressurization/stirring/agitation/depressurization process was repeated a total of 3 times. After the third cycle, a series of three flushing cycles to remove the additive was performed by pressurizing and de-pressurizing the reactor vessel using CO2. The stirring was stopped and the basket was removed from the reactor vessel. Bone samples were assayed for sterility and compression strength with the results being that there was sterilization (i.e., >10^6 reduction in bacterial spores), and there was no reduction in compression strength attributes.

Q: Which “kill of the B. subtilis present” value ([1]; Example 3B: as 3A, samples with less than 10^6 CFU/ml) does the source give for `CC(=O)O` [acetic acid] here?
A: total kill

Q: And the “log reduction in CFUs extrapolated for greater than 10^6 CFU/ml” value ([1]; Example 3B: extrapolated from total kill of samples with less than 10^6 CFU/ml)?
A: 6 log

Q: And the kill of bioindicators ([1]; Example 3D: as 3A)?
A: Compete kill

Q: Which results are given for `O` [Ex. A, Water]?
A: Final CFU/ml [2]: 2.1 × 10^5 CFU/ml; Log reduction [2]: 1 log and 1.0 log

Q: With `O=C(O)CC(=O)O` [Malonic acid] as the compound, how does the Log reduction ([3]; 50 C, 2 hours, 3 cycles) read?
A: 0–0.12 log

Q: For `CCO` [Ethanol], which Log reduction ([3]; 60–50 C, 3 hours, 4 cycles) is on record?
A: 1.2–4.0 log

Q: With `CC(=O)OO` [peracetic acid] as the compound, how does the kill of bioindicators ([1]; Example 6B: as 6A) read?
A: Complete kill

Q: What about the “inactivation rates (log reduction in CFUs over time)” value ([4]; bioindicators in TYVEK pouches) of the same compound?
A: linear

Q: And the “time for a single log reduction in the bioindicator” value ([4]; spores on glass fiber filters in TYVEK pouches, >10^6 CFUs per filter, 4 replicates per time point)?
A: 14.24 minutes

Q: With `O=C=O` [supercritical carbon dioxide, carbon dioxide] as the compound, how does the “log reduction in B. subtilis spores” value (B. subtilis spores) read?
A: 3.5 log

Q: For `O=P(O)(O)O` [Phosphoric acid], which Log reduction ([3]; 50 C, 2 hours, 3 cycles) is on record?
A: 0.18–0.25 log

Q: For `OCl` [HOCl], which Log reduction ([3]; 60 C, 3 hours, 4 cycles) is on record?
A: 0–0.50 log

Q: What does the source list for `O=C(O)C(F)(F)F` [Trifluoroacetic acid]?
A: kill of bioindicators [5]: Complete kill; reduction in bacterial spores (sterility of bone samples) (bacterial spores): > 10^6

Q: Which Log reduction ([3]; 50 C, 2 hours, 3 cycles) does the source give for `O=CO` [Formic acid] here?
A: 0 log

Q: With `O=C(O)CC(O)(CC(=O)O)C(=O)O` [50% Citric acid, Citric acid] as the compound, how does the Log reduction ([3]; 60 C, 2 hours, 3 cycles) read?
A: 0.03–0.62 log

Q: For `O=C(O)CCC(=O)O` [Succinic acid], which Log reduction ([3]; 50 C, 2 hours, 3 cycles) is on record?
A: 0.25–0.29 log
